Legend:
[1] = target: T1, human Nav1.7 (hNav1.7) voltage-gated sodium channel alpha subunit (Homo sapiens, UniProt Q15858); assay: Qube automated patch-clamp electrophysiology, HEK293-hNav1.[…], inactivated state (-70 mV); also thallium flux assay IC50 […]; format: cell-based
T1 construct: gene SCN9A; alpha subunit, stably expressed in HEK293 cells

[2] = target: T1, human Nav1.7 (hNav1.7) voltage-gated sodium channel alpha subunit; assay: Qube automated patch-clamp electrophysiology, HEK293-hNav1.[…], inactivated state (-70 mV); format: cell-based

T1 sequence (Q15858 whole entry): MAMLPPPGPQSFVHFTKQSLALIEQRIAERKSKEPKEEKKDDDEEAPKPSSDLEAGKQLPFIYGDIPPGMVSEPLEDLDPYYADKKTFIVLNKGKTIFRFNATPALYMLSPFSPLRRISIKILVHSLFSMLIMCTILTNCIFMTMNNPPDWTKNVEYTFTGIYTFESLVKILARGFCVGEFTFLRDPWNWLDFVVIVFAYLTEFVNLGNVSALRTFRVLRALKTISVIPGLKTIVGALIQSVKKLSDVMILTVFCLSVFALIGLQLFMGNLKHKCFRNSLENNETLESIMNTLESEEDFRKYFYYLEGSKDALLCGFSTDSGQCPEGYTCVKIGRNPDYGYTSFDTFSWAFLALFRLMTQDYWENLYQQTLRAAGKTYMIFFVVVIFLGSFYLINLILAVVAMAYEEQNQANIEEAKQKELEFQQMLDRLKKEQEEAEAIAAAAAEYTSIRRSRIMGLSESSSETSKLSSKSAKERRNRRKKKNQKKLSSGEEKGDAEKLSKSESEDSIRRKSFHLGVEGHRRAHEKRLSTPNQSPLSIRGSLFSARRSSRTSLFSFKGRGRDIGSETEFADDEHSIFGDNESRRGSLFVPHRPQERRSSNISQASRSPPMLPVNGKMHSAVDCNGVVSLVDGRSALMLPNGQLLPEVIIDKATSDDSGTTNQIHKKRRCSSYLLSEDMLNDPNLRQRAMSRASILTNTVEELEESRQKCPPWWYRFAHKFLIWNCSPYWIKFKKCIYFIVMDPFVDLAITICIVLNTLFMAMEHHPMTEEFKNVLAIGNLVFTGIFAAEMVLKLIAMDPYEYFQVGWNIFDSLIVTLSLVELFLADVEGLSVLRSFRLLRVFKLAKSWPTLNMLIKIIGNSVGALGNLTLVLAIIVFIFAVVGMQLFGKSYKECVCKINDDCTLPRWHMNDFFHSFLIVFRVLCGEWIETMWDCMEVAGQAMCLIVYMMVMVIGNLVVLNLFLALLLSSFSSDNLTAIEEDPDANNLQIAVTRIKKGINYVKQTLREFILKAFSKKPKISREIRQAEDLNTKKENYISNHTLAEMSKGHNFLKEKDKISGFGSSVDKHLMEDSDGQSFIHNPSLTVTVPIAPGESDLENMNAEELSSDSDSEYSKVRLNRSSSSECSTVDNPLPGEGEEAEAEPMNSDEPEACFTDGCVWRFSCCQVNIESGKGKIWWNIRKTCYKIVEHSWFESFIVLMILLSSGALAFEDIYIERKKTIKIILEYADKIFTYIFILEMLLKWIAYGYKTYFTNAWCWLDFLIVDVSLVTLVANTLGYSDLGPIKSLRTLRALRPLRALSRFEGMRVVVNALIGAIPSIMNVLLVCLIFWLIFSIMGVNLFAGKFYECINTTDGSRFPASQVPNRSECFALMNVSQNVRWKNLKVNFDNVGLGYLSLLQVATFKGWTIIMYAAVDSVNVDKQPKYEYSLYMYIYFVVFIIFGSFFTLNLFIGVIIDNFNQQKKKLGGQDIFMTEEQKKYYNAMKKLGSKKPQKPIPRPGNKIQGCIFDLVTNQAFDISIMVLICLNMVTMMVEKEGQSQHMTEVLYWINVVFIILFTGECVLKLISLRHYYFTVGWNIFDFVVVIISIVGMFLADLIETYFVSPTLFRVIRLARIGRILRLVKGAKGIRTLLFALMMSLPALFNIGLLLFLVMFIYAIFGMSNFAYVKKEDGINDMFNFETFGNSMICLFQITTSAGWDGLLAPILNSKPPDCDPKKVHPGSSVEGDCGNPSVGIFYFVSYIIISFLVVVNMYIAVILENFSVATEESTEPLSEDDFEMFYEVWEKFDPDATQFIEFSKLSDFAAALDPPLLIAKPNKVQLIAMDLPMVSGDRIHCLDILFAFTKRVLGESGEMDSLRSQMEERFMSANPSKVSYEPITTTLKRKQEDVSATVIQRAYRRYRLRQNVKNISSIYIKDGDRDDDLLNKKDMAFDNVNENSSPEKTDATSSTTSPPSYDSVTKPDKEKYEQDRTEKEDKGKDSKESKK

| Kd [1] | Kd [2] | SMILES |
| --- | --- | --- |
| 49.9 µM | – | CCCCCCCC/C=C\CCCCCCCC(=O)OC(COC(=O)CCCCCCCCCCCCCCC)CO[C@@H]1O[C@H](CO)[C@H](O)[C@H](O)[C@H]1O (stereo partly drawn) [compound 1, 1-palmitoyl-2-oleoyl-3-(β-D-galactosyl)-glycerol] |
| – | 25.2 µM | CCCCCCCCCCCCCCCC(=O)OC[C@H](CO[C@H]1O[C@H](CS(=O)(=O)O)[C@@H](O)[C@H](O)[C@H]1O)OC(=O)CCCCCCCCCCCCCCC [compound 2, sulfoquinovosyldiacylglycerin] |

Source: publication PMC12670511, “Discovery of Nav1.7 Inhibitors through the Screening of Marine Natural Product Extracts” (Journal of Natural Products, 2025)
